US20260274810A1, “NOVEL MITOFUSIN INHIBITORS” (ALBERT EINSTEIN COLLEGE OF MEDICINE, priority 2023, published 2026)
pIC50: −log10 of the molar value.

Assays:
[1] = tested on: MEFs; experiment: Mitochondrial respiration in cellulo (OCR); format: cell-based, mouse; settings: WT MEFs; MASM7 1 μM or MFI8 20 μM, 6 hrs
Protocol: Mitochondrial respiration in cellulo. Mitochondrial oxygen consumption rates (OCR) were assessed using a XF24 Analyzer (Seahorse Biosciences, Billerica MA, USA). In brief, 3×10^4 MEFs were cultured in a XF24 cell culture microplate containing DMEM supplemented with 10% fetal bovine serum. Cells were treated with MASM7 (1 μM) or MFI8 (20 μM) 6 hrs prior to OCR analysis. Mitochondrial respiration was assessed by the sequential addition of oligomycin (1 μM), carbonyl cyanide-4-(trifluoromethoxy)phenylhydrazone (FCCP, 2 μM) and rotenone (1 μM)-antimycin (1 μM) as previously reported. OCR was normalized to cell number or total protein content per well for each condition tested.

[2] = tested on: MEFs; experiment: Mitochondrial membrane potential (TMRE); format: cell-based, mouse
Protocol: Mitochondrial depolarization assay (mtΔΨ). MEFs (10^4 cells/well) were seeded in a 96-well black plate and treated with MASM7 or MFI8 for 6 hrs. Following treatments, cells were stained with 250 nM TMRE (Sigma; Cat. 87917) for 20 min at 37° C. Subsequently, cells were washed with thrice with PBS. Fluorescence intensity was detected by a M100 microplate reader (TECAN, Ex: 540 nm/Em: 579 nm).

[3] = tested on: cells; experiment: Cell viability assay (CellTiter-Glo); format: cell-based; settings: 72 hours
Protocol: Cell viability assay. Cells (5×10^3 cells/well) were seeded in a 96-well white plate and treated with serial dilutions of MASM7 or MFI8. Cell viability was assayed after 72 hrs by addition of CellTiter-Glo reagent according to the manufacturer's protocol (Promega). Luminescence was measured using a F200 PRO microplate reader (TECAN). Viability assays were performed in at least triplicate and the data normalized to vehicle-treated control wells. Dilutions of MASM7 or MFI8 were performed using a TECAN D300e Digital Dispenser from 10 mM stocks.

[4] = tested on: THP-1 cells; experiment: Cell death with BV6; format: cell-based
Protocol: (§1) Cell death assay. Cells (2×10^5 cells/well) were seeded in a 6-well plate and treated with the indicated drugs for 6 hours. Cells were dissociated using Accutase (Thermo Fisher; Cat. #00-4555-56) in order to avoid accidental exposure of phosphatidylserine on the outer plasma membrane. Cell death was evaluated with Dead Cell Apoptosis Kit with Annexin V Alexa Fluor™ 488 & Propidium Iodide (Thermo Fisher; Cat. #V13241) according to manufacturer's protocol. Data was acquired by BD LSRII flow cytometer system using BD FACSDiva software. Data was analyzed by FlowJo (BD).

[5] = tested on: U2OS cells; experiment: Cell death with BV6; format: cell-based
Protocol: as §1

[6] = tested on: MEFs; experiment: DNA damage, γH2AX immunofluorescence; format: cell-based, mouse
Protocol: (§2) Immunofluorescent analysis and microscopy. Cells were treated with MASM7, MFI8 and or Q-VD-OPh at ~70% confluence for 6 h. After treatments, cells were washed with PBS and fixed with 4% PFA for 15 min. Then cells were permeabilized with 0.1% Triton X-100 in PBS for 10 min. Cells were blocked with 5% BSA in PBS-T and incubated overnight with primary antibodies as indicated; γH2AX (Sigma; 05-636, 1:100 dilution). After incubation with primary antibodies, cells were washed with PBS and incubated with the appropriate mouse secondary antibody (ThermoFisher Scientific; A-11001) in the blocking solution. After PBS washes, coverslips were dipped in water and mounted on glass slides using Vectashield containing DAPI (Vector laboratories). Images were taken with Leica SP5 inverted confocal microscope. Data were analyzed with ImageJ.

[7] = tested on: MFN1 and MFN2; experiment: MFN1 and MFN2 gene expression and protein levels; format: cell-based
Protocol: Western blot. Western blots were performed from whole cell lysates (WCL) prepared in lysis buffer containing 50 mM Tris-HCl pH 7.5, 1% Triton X-100, 150 mM NaCl, 5 mM MgCl2, 1 mM EGTA and 10% glycerol in the presence of protease inhibitor cocktail (Roche).
Analysis of mitochondrial biogenesis-related genes by q-PCR. Total RNA was extracted by using RNeasy Mini Kit (Qiagen) followed by cDNA synthesis using the SuperScript IV VILO Master Mix (Thermo Scientific), both performed according to the manufacturer's protocol. q-PCR was performed using the following primers: […]
For the q-PCR reaction, Power SYBR Green master mix (Thermo Scientific) was used according to the manufacturer's instructions. Briefly, each reaction consisted of 10 ng cDNA, 5 μL Power SYBR Green master mix, 200 nM primers (forward and reverse), and RNase-free water up to 10 μL. q-PCR was performed on the ViiA 7 Real-Time PCR System (Thermo Scientific) with the following cycle parameter: 95° C. for 10 min, 40 cycles of 95° C. for 15 s, and 60° C. for 1 min. q-PCR products were analyzed by melting curves for unspecific products or primer dimer formation.

[8] = tested on: MEFs; experiment: Mitochondrial aspect ratio (Mito AR), live cell imaging
Protocol: Live cell imaging. MEFs were seeded on chamber slides (MatTek Corporation: 35 mm dishes, No. 1.5, 14 mm glass diameter) at ~70% confluence. […] Images were taken with Leica SP5 inverted confocal microscope. Data were analyzed with Image J software. >200 mitochondria were measured per condition in mitochondrial aspect ratio.
Measurement of mitochondrial aspect ratio (Mito AR). Images that depict stained mitochondria with mitotracker green were analyzed using FIJI We measured for each mitochondrion its length and width. Then, we divided the length by the width for each mitochondrion to get its mitochondrial aspect ratio. >200 mitochondria were measured per treatment.
MEFs were seeded on chamber slides (MatTek Corporation: 35 mm dishes, No. 1.5, 14 mm glass diameter) at ~70% confluence. Cells were treated with compounds. Then, cells were stained with MitoTracker Green (200 nM, Invitrogen) for 20 min at 37° C. After treatments, media was replaced with FluoroBrite™ DMEM (Invitrogen) supplemented with 10% FBS, 100 U ml^−1 penicillin/streptomycin, 2 mM L-glutamine and compound prior image acquisition. Images were taken with Leica SP5 inverted confocal microscope. Data were analyzed with Image J software. >200 mitochondria were measured per condition in mitochondrial aspect ratio. Measurement of mitochondrial aspect ratio (Mito AR). Images that depict stained mitochondria with mitotracker green were analyzed using FIJI software. Each mitochondrion was measured for its length and width. Then, the length was divided by the width for each mitochondrion to get its mitochondrial aspect ratio. >200 mitochondria were measured per treatment.

[9] = tested on: U2OS cells; experiment: Minority MOMP imaging; format: cell-based; settings: U2OS cells expressing CytoGFP and MitoCherry, 3 h
Protocol: Minority MOMP. U2OS cells (100,000) were seeded onto glass coverslips and transfected with 250 ng each of CytoGFP and Mito-mCherry as previously described 39. 16 h after transfection, cells were treated with compounds for 3 h and then fixed in 4% paraformaldehyde. Cells were imaged on a Zeiss LSM880 with Airyscan using a 63×1.4 NA objective. Subsequent to acquisition, images were processed using the Airyscan processing function in ZEN software. Minority MOMP was quantified by manually scoring the co-localisation of CytoGFP and mito-mCherry.

[10] = tested on: U2OS cells; experiment: DNA damage, γH2AX immunofluorescence; format: cell-based
Protocol: as §2

[11] = tested on: caspase-3/7 in MEFs; experiment: Caspase-3/7 activation assay; format: cell-based, mouse
Protocol: Caspase-3/7 activation assay. Cells (5×10^3 cells/well) were seeded in a 96-well white plate and treated with MASM7, MFI8. Caspase 3/7 activation was measured after 6 hr by addition of the Caspase-Glo 3/7 reagent according to the manufacturer's protocol (Promega). Luminescence was detected by a F200 PRO microplate reader (TECAN). Caspase assays were performed in at least triplicate and the data normalized to vehicle-treated control wells. Dilutions of MASM7 or MFI8 were performed using a TECAN D300e Digital Dispenser from 10 mM stocks.

[12] = MFN1/MFN2 DKO MEFs reconstituted with WT MFN2

## Cc1cccc(NC(C)c2cc(Cl)ccc2O)c1C (centres unmarked) [MFI8]
[1]
  respiration and mitochondrial ATP production: reduced respiration and mitochondrial ATP production
[2]; [12]
  mitochondrial membrane potential: significantly decreased mitochondrial membrane potential
[2]; WT MEFs, 6 hrs
  mitochondrial membrane potential: concentration responsively decreased mitochondrial membrane potential
[3]
  cellular viability: neither MFI8 nor MASM7 decreased cellular viability
[4]
  cell death in combination with BV6: synergistically induce cell death
[5]
  cell death in combination with BV6: synergistically induce cell death
[6]; MFN1/MFN2 DKO MEFs
  γH2AX foci / DNA damage: not in MFN1/MFN2 DKO MEFs
[6]; WT MEFs, 6 h
  γH2AX foci / DNA damage: increased γH2AX foci
[7]
  MFN1 and MFN2 gene expression and protein levels: neither MASM7 nor MFI8 altered
[8]; [12]
  mitochondrial aspect ratio: significantly decreased mitochondrial aspect ratio
[8]; Mus musculus, 6 h, read-out: IC50 (decrease of Mito AR)
  pIC50: 5.39
[8]; co-treated with MASM7 in MEFs
  mitochondrial aspect ratio: reduced mitochondrial aspect ratio
[8]; double knockout of MFN1 and MFN2
  mitochondrial aspect ratio: completely abolished MFI8 from reducing mitochondrial aspect ratio
[8]; either MFN1 or MFN2 knocked out
  mitochondrial aspect ratio: still capable of reducing mitochondrial aspect ratio
[9]
  MOMP: induced MOMP, albeit at modest levels
[10]; U2OS cells
  DNA damage: induced DNA damage in U2OS cells
[10]; U2OS, co-treatment with pan-caspase inhibitor Q-VD-OPh
  DNA damage: abolished the capacity of the latter to induce DNA damage
[11]; 6 hr
  caspase-3/7 activity: concentration-responsively increased caspase-3/7 activity
[11]; deletion of APAF-1
  caspase 3/7 activity: detrimental for the capacity of MFI8 to increase caspase 3/7 activity
[11]; deletion of MFN1/MFN2
  caspase-3/7 activity: impaired the capacity of MFI8 to increase caspase-3/7 activity
